Experimental findings from article PMC7762498, “Demethoxycurcumin analogue DMC-BH exhibits potent anticancer effects on orthotopic glioblastomas” (Aging (Albany NY), 2020) are described below.

One data set in a line: in vivo. The note with it: female, ICR, mouse, ip.
Another data set relates to C6 glioma cells. Kind of data set: MTT cell viability assay, C6. It is filed as cell-based. The conditions noted are these: Rattus norvegicus, 72 hours. The method, then: To investigate the cytotoxicity of DMC-BH on glioma cells (Figure 1A), we used an MTT assay to assess viability changes in SHG-44, C6, U251, U87, A172 and primary glioma cells treated with various concentrations of DMC-BH for 24, 48 or 72 hours (Figure 1B–1H). […] U251 and SHG-44 cells were more sensitive to DMC-BH. We then used the human glial cell line, HEB, to evaluate the toxicity of DMC-BH in normal cells. […] DMC-BH was not toxic to normal cells.
The human GBM U87-luc cell line was purchased from the Shanghai Sunbio Medical Biotechnology Co., Ltd. (Shanghai, China). Cells were cultured in DMEM supplemented with 10% fetal bovine serum (FBS) and maintained in an incubator at 37° C and 5% CO2. After cells were routinely passaged at 2- to 3-day intervals, animal experiments were carried out when the cells entered exponential growth phase. Rat C6, human SHG-44, U87, A172 and U251 glioma cells were obtained from the Shanghai Institute of Cell Biology, Chinese Academy of Sciences (Shanghai, China). Primary glioma cells were preserved by our laboratory from previous studies. […]
Glioblastoma cells were seeded into 96-well plates and exposed to vehicle (PBS) or different concentrations of DMC-BH for 24, 48 or 72 hours. Cell viability was measured using an MTT assay and was expressed as a ratio to the absorbance value of the control cells at 570 nm.

The subject of the next data set is CYP-450. Kind of data set: CYP-450-related metabolism. It is filed as in vitro ADME.
The test system of data set [1] is human glioblastoma U87-Luc cells. As to the kind of experiment: Orthotopic glioblastoma xenograft (BLI, immunohistochemistry). The conditions noted are these: for tumor growth (BLI): U87-Luc orthotopic xenograft, nude mice, 20 mg/kg intraperitoneal; for percentage of TUNEL-positive cells / Ki67-positive rate: orthotopic xenograft tissue, 20 mg/kg; for percentage of TUNEL-positive cells: control 3.30% ± 0.26%; for Ki67-positive rate: untreated group 36.73% ± 4.82%. Format: in vivo, mice. The method, then: We used orthotopic glioblastoma xenografts transplanted into mice by human glioblastoma U87-Luc cells to quantify the anti-tumor effect of DMC-BH and DMC. Tumor growth was recorded in vivo using Bioluminescent Imaging (BLI). […] The sizes of the tumors in the mice treated with DMC-BH were much smaller than those in the DMC-treated group or control group (P < 0.05) (Figure 4B). […] In addition, no significant body weight loss occurred in any of the three groups (P > 0.05) (Figure 4C).
Figure 4 The effects of DMC-BH and DMC on tumor growth in orthotopic glioblastoma xenograft models. (A) U87-Luc xenograft tumor-bearing nude mice were treated with 20 mg/kg DMC-BH, 20 mg/kg DMC or isometric saline for 18 days. The growth of orthotopic glioblastoma xenografts was monitored by BLI. (B) The sizes of orthotopic glioblastoma xenografts were measured using an IVIS spectrum image system. (C) The body weight of animals was measured after DMC-BH, DMC or isometric saline treatment.
Figure 5 The effects of DMC-BH and DMC on orthotopic glioblastoma growth were analyzed by immunohistochemical staining. (A) The orthotopic glioblastoma growth potential after treatment with 20 mg/kg DMC-BH or DMC treatment was evaluated by Ki67 immunohistochemistry. (B) The orthotopic glioblastoma apoptosis rate after treatment with 20 mg/kg DMC-BH or DMC was analyzed by TUNEL staining.
Thirty-six male nude mice weighing between approximately 18 g and 20 g and aged 6 to 8 weeks were divided into a control group, DMC group and DMC-BH group. The nude mice were handled under a laminar flow hood, and the feed, bedding, cage and contact instruments were all used after high pressure disinfection. The amplified U87-Luc cells were passaged in a 6 cm culture dish and placed in a 5% CO2 incubator. Ten percent chloral hydrate (40 μL/10 g) was used to anesthetize nude mice, and the nude mice were fixed on a stereotaxic apparatus when they were under deep anesthesia. We began to digest the U87-Luc cells once the mice were immobilized. The concentration of cells was 1 × 10^8/mL. Using a micro syringe, we slowly drew up 5 μL cells. Then 5 × 10^5 U87-Luc cells were injected into the caudate nucleus of the nude mice through an infusion of 1 μL/min. The orthotopic glioblastoma growth was quantified by BLI using an IVIS SPECTRUM 200 system (Perkin Elmer). Either DMC-BH or DMC was administered via intraperitoneal injection at a dose level of 20 mg/kg per injection. The drug administration started 10 days after intracranial implantation of U87-Luc cells, and in vivo imaging confirmed that the tumors were formed. The drug was administered continuously for 18 days. Control mice received an equivalent volume of physiologic solution each day. At day 18, all animals were sacrificed by CO2 inhalation.
Anesthetize mice with 2-3% isoflurane. Inject mice intraperitoneally with D-luciferin (150 μl of 15 mg/ml stock). Ten minutes after luciferin injection assess bioluminescent signal over an integration time of 10 and 60 s using a cooled charge-coupled device (CCD) camera (Spectrum; Caliper Life Sciences, Hopkinton, MA, USA). BLI was used to monitor tumor growth and response to therapy using the IVIS spectrum imaging system.
Following perfusion, the whole brain was immersed in 10% neutral paraformaldehyde buffer solution and fixed for 48 hours at room temperature. Routine dehydration and paraffin embedding were performed after fixation. Paraffin blocks were sliced to a thickness of 3 μm. We dewaxed tissue sections with xylene and rehydrated them through an ethanol gradient. The sections were then rinsed 2 times for 5 minutes with PBS. Incubate with 3% methanol solution of hydrogen peroxide for 20 minutes. Sections were then incubated in 5% goat serum for 10 minutes at room temperature. Serum was removed, and the sections were incubated with the first antibody at 4° C degree overnight. After PBS flushing, we added a secondary biotin-conjugated antibody. […]

The next data set concerns p-Akt. As to the kind of experiment: Western blot of orthotopic xenograft tissue, p-Akt. It is filed as in vivo, mice. The note with it: U87 orthotopic xenografts, versus control. An excerpt: The PI3K/Akt/mTOR signaling pathway is over activated in glioma tissues, and this increased activation is closely related to malignancy and chemoresistance of gliomas. Previous research reported that among its potential anti-tumor actions in breast cancer, DMC targeted multiple AMPK downstream pathways involving dephosphorylation of Akt and mTOR inhibition. Because DMC-BH is a DMC derivative, we further investigated the inhibitory effects of DMC-BH on gliomas by targeting the Akt/mTOR signaling pathway. We evaluated the expression of p-Akt, and p-mTOR in tumor tissues after DMC-BH treatment (Figure 6A). […] No significant changes were found in total Akt and mTOR expression. Moreover, the expression of p-Akt and p-mTOR in the DMC group was decreased with that in the control group (P < 0.05).
Figure 6 The effects of DMC-BH and DMC on the Akt/mTOR signaling pathway in U87 orthotopic glioblastoma xenografts. (A) Total protein was extracted from U87 orthotopic glioblastoma xenografts. Then p-Akt and p-mTOR protein expression was detected by Western blot. (B) The column chart illustrates the relative expression levels of these proteins.
A general note: In western blotting, separated proteins are transferred to a membrane and probed.

Turning to `COc1cc(C=CC(=O)CC(=O)C=Cc2ccc(O)c(CN3CCCC3)c2)ccc1O` [DMC-BH, 1-[4-Hydroxy-3-(pyrrolidin-1-ylmethyl)phenyl]-7-(4-hydroxy-3-methoxyphenyl) hepta-1,6-diene-3,5-dione], in the data set “in vivo”, the median lethal dose (LD50) (usually the dose at which mortality reaches 50%) at 14 days was 48.1 mg/kg. In the data set with C6 glioma cells, 5.79 µM corresponded to half-maximal inhibition (IC50). Besides, the CYP-450-related metabolism result in the data set on CYP-450 is on record as “low”. Besides, in data set [1], the “tumor growth (BLI)” value is reported as “much greater tumor suppressive effects”, the “percentage of TUNEL-positive cells” value is given as 28.68% ± 5.15% and the Ki67-positive rate is recorded as 6.38% ± 1.38%. For the same compound, in the data set with p-Akt, the “p-Akt expression in tumor tissues” value was “significantly decreased”.

For “Demethoxycurcumin [DMC, reference compound]”, in data set [1], the “tumor growth (BLI)” value was “slight but significant tumor inhibitory effects”, the “percentage of TUNEL-positive cells” value is 3.33% ± 0.31% and the Ki67-positive rate is 22.17% ± 5.10%. Further, the “p-Akt expression in tumor tissues” value in the data set on p-Akt was “decreased”.
